One may read the melting point as the temperature of the solid-liquid transition.

Consider `CC(=O)N1CCCc2cc(Br)ccc21`, for which the melting point fell in the range of 59 to 61 °C.
The molecule `O=C(O)c1ccc(NC(=O)c2cccc(Br)c2)cc1` registered a melting point of 271 to 273 °C.
Molecule `CC(C)(C)OC(=O)N1CCN(C(=O)CN)CC1` returned a melting point of 95 to 97 °C.
With `O=C(Nc1ccc(C(F)(F)F)cc1)OCC(F)(F)F` the figure was 102 to 104 °C; with `CC(C)c1c(C(=O)O)nnn1-c1ccc(F)cc1F`, 158 to 160 °C; with `COc1cc(C(=O)O)c([N+](=O)[O-])cc1OCC1CCCO1` (centres undefined), 159 to 161 °C.
Molecule `CCc1c(C(=O)O)cnn1C` had a melting point of 144 to 146 °C.
Molecule `CC(C)C(N)=S` registered a melting point of 42 to 44 °C.
In turn, `CN(C)C=C(C#N)S(C)(=O)=O` returned a melting point of 129 to 131 °C.
Under `Cc1c(NC(=O)CCCl)c(=O)n(-c2ccccc2)n1C` stands 207 to 209 °C; under `N#Cc1ccc(N2CCC(N)CC2)nc1`, 70 to 72 °C.
Under `N=C1NS(=O)(=O)Cc2ccccc21` stands 264 to 266 °C; under `COc1ccccc1OCc1ccccc1N`, 55 to 57 °C.
With `COC(=O)c1cc(F)c(F)cc1N` the figure was 79 to 81 °C; with `O=[N+]([O-])c1ccc(O)c(Cc2ccccc2)c1`, 117 to 121 °C.
`CC(CO)NCc1ccccc1Cl` (centres undefined): the melting point lay in the range of 54 to 56 °C.
Molecule `O=C1CN=C(S)N1C1CCCCCC1` showed a melting point of 72 to 74 °C.
The molecule `O=[N+]([O-])c1ccc(CO)c(Br)c1` came in with a melting point of 81 to 83 °C.
With `O=C(c1cc(Br)c[nH]1)N1CCCC1` the figure was 210 to 212 °C.
With `OC(CNCc1ccccc1)c1cccs1` (centres undefined) the figure was 95 to 97 °C; with `N#CSc1ccc(N)cc1`, 43 to 56 °C.
On to `CCOC(=O)c1c(N)sc2c1CCNC2`, for which the melting point lay in the range of 121 to 123 °C.
The molecule `O=C(O)CCc1nc2cc(Br)ccc2s1` displayed a melting point of 154 to 156 °C.
The molecule `Cc1ccc(CN2C(=O)CCC2C(=O)O)cc1` (centres undefined) showed a melting point of 128 to 130 °C.
With `NC(=O)c1c(N)sc2c1CCC2` the figure was 158 to 160 °C.
Under `CCCc1ccc2c(c1)C(=O)C(=O)N2` stands 104 to 106 °C.
For the molecule `Nc1nonc1-c1ccc(Cl)cc1Cl`, the melting point lay in the range of 105 to 107 °C.
Under `Cc1ccc(N2CCC(N)C2=O)cc1` (centres undefined) stands 97 to 99 °C; under `NNC(=O)c1cc(Br)c[nH]1`, 215 to 219 °C.
With `COc1ccc(OCc2ccccn2)c(/C=C/C(=O)O)c1` the figure was 177 to 179 °C; with `Cc1cc(C)n(CC(=O)O)n1`, 187 to 189 °C.
With `O=c1cc(CO)nc2ccc(Br)cn12` the figure was 204 to 206 °C; with `O=C(O)c1cn(-c2ccccc2)nc1-c1ccc(Br)cc1`, 262 to 264 °C.
The molecule `Cc1ccc(N2C(=O)C=CC2=O)cc1` showed a melting point of 151 to 153 °C.
In the case of `CS(=O)(=O)c1cc(C(=O)O)ccc1Br`, the melting point is 236 to 238 °C.
`CC(C)CCOc1ccc(C2(C)NC(=O)NC2=O)cc1` (centres undefined) showed a melting point of 110 to 112 °C.
The molecule `O=C1CCn2cccc21` came in with a melting point of 54 to 56 °C.
With `COc1cc2c(cc1C=O)OC(C)C2` (centres undefined) the figure was 78 to 80 °C; with `CCN(C)C(=O)c1cccc(C(=O)O)c1`, 102 to 104 °C; with `COc1ccc2nc(C(=O)O)ccc2c1`, 184 to 186 °C.
In turn, `CSc1nc(Cl)cc(CCl)n1` came in with a melting point of 28 to 32 °C.
With `O=C(O)CC(O)(c1ncc[nH]1)C(F)(F)F` (centres undefined) the figure was 208 to 210 °C.
With `O=C(O)c1ccc(OCC2CC2)nc1` the figure was 156 to 158 °C.
In turn, `CN(c1ccccc1)S(=O)(=O)c1ccc(Cl)c(C(=O)O)c1` gave a melting point of 151 to 153 °C.
Consider `COC(=O)c1ccc(-n2cc(C)cn2)c(N)c1`, for which the melting point was in the range of 136 to 138 °C.
Consider `CC(C)(C)OC(=O)N1CCC(Oc2ccccc2)(C(=O)O)CC1`, for which the melting point lay in the range of 103 to 105 °C.
As to `CC(C)(C)C(=O)Nc1ccc(Cl)c(C(F)(F)F)c1`, the melting point lay within 132 to 134 °C.
Under `O=Cc1c[nH]nc1-c1ccc2c(c1)OCCO2` stands 210 to 212 °C.
Under `CC(Cl)C(=O)NC1CC1` (centres undefined) stands 67 to 71 °C.
The molecule `CCOc1ccc(C(N)=O)cn1` came in with a melting point of 179 to 181 °C.
Under `O=C1CC(N2CCCC2)C(=O)N1` (centres undefined) stands 123 to 125 °C; under `Cc1ccc(C=CC(=O)O)nc1`, 163 to 165 °C; under `COc1cc(C)c(S(=O)(=O)Cl)cc1C`, 98 to 100 °C.
On to `CC(Cl)C(=O)Nc1ccccc1[N+](=O)[O-]` (centres undefined), for which the melting point was 71 to 73 °C.
With `NC(=S)N1CCCCCC1` the figure was 151 to 153 °C.
Under `CS(=O)(=O)Nc1ccccc1I` stands 96 to 98 °C.
Under `O=C1CC(c2ccccc2)CN1` (centres undefined) stands 70 to 72 °C; under `CN(C)C=C1C(=O)CCC1=O`, 89 to 91 °C.
As to `NC(C(=O)O)c1cccs1` (centres undefined), the melting point is 208 to 210 °C.
Regarding `NC(CC(=O)NC1CCCCC1)=NO`, the melting point was 167 to 169 °C.
`CS(=O)(=O)c1cc(Br)ccc1N` yielded a melting point of 129 to 131 °C.
With `NC(=O)c1nn(CC(=O)O)c(=O)c2ccccc12` the figure was 220 to 222 °C; with `FC(F)(F)c1ccc(-n2cccn2)nc1`, 66 to 68 °C; with `CNc1ccnc(C(N)=O)c1`, 157 to 159 °C.
On to `CC(=O)c1ccc(-c2ccncc2)cc1`, for which the melting point was in the range of 93 to 95 °C.
With `O=C(O)c1csc(-c2ccc(Cl)c(Cl)c2)n1` the figure was 212 to 214 °C.
Under `Cn1c(N)nccc1=O` stands 257 to 259 °C.
For `Cc1cc(C(=O)O)c2c(Br)cccc2n1`, the melting point fell in the range of 232 to 234 °C.
`O=S1(=O)CCCN1c1ccc(Br)cc1F` had a melting point of 89 to 91 °C.
Under `O=C(CCl)NNC(=O)C1CCC1` stands 199 to 201 °C; under `Nc1oc2ccc(F)cc2c(=O)c1C=O`, 251 to 253 °C; under `CS(=O)(=O)c1ccc(NN)cc1`, 132 to 134 °C.
`O=S(=O)(Cl)N1CCCC2CCCCC21` (centres undefined) displayed a melting point of 34 to 36 °C.
With `O=C(NCc1ccccc1)c1ccc(-n2ccnc2S)cc1` the figure was 216 to 218 °C; with `CC(C)c1ccc(SC(C(=O)O)c2ccccc2)cc1` (centres undefined), 99 to 101 °C; with `Nc1ncc(Br)nc1C(=O)O`, 172 to 174 °C.
With `COc1ccc(-c2noc(CCl)n2)cc1OC` the figure was 101 to 103 °C.
Under `CNS(=O)(=O)CCC(=O)OCc1ccccc1` stands 59 to 61 °C.
As to `COC(C)c1nc(CC(=O)O)cs1` (centres undefined), the melting point lay in the range of 154 to 156 °C.
Under `COCCNc1nc2ccccc2[nH]1` stands 170 to 172 °C.
Under `CN(C)N=Cc1cnn(C)c1` stands 70 to 72 °C; under `Cc1nc([N+](=O)[O-])cn1CC(=O)O`, 244 to 246 °C.
With `COc1ccc(Cn2cnc(N)n2)cc1` the figure was 129 to 131 °C; with `N#CCc1nc2scc(C3CC3)c2c(=O)[nH]1`, 284 to 286 °C.
For `CN(CC(=O)O)C(=O)c1ccsc1`, the melting point was 56 to 57 °C.
Under `COC(=O)NC(C)(C)C(=O)O` stands 154 to 156 °C; under `Nc1ccccc1N1CCC(O)CC1`, 117 to 119 °C; under `CS(=O)(=O)CCS(N)(=O)=O`, 149 to 151 °C.
As to `Cc1cc(NC(N)=S)n(C)n1`, the melting point lay within 218 to 220 °C.
With `Nc1ccc(OCc2cccc(F)c2)c(F)c1` the figure was 43 to 45 °C; with `Fc1ncccc1OCc1ccccc1`, 34 to 36 °C; with `Nc1ccc(S(=O)(=O)CC2CCOC2)cc1` (centres undefined), 118 to 120 °C.
With `CNC(=O)C1Cc2ccccc2CN1` (centres undefined) the figure was 97 to 99 °C.
Under `Cc1csc(CC(=O)NN)n1` stands 73 to 75 °C; under `O=C(CCSc1ccccn1)c1ccc(F)cc1`, 60 to 62 °C.
Molecule `N#CCC(=O)N1CCS(=O)(=O)CC1` returned a melting point of 157 to 159 °C.
Regarding `Cc1ccccc1-n1nnnc1S`, the melting point was 65 to 67 °C.
In turn, `CC(C)c1cc(=O)oc2cc(O)ccc12` displayed a melting point of 77 to 79 °C.
Regarding `O=C(c1ccc(Cl)cc1)c1ccsc1`, the melting point is 92 to 94 °C.
In turn, `ClCc1nnc(-c2cc3c(s2)CCCC3)o1` yielded a melting point of 107 to 109 °C.
Under `Cn1ccnc1SCc1ccccc1[N+](=O)[O-]` stands 86 to 88 °C; under `CCOC(=O)C1=C(C)NN=C(C)C1`, 99 to 101 °C; under `O=C(O)c1cn(Cc2ccccc2)c2ccccc12`, 192 to 194 °C.
Under `NC(=O)CCc1ccc(C(=O)O)cc1` stands 226 to 228 °C.
Molecule `FC(F)Sc1nc2ccccc2[nH]1` displayed a melting point of less than 17 °C.
The molecule `O=C(CCl)Nc1c(F)cc(F)cc1Br` returned a melting point of 132 to 134 °C.
In turn, `COc1cc(C(C[N+](=O)[O-])c2c[nH]c3ccccc23)ccc1O` (centres undefined) yielded a melting point of 115 to 117 °C.
Under `CC(C)(C)NC(=O)C1CCCCN1` (centres undefined) stands 79 to 81 °C; under `O=S(=O)(Cl)c1ccc(OCC2CCCCO2)cc1` (centres undefined), 64 to 66 °C; under `CCCCN1C(=O)CCC(C(=O)O)C1c1ccccc1OC` (centres undefined), 288 to 290 °C.
Under `O=C(O)C1CCC(=O)N(Cc2ccccc2)C1` (centres undefined) stands 154 to 156 °C; under `COC(=O)c1cnc2c(c1)c(C)nn2C`, 129 to 131 °C.
Take `Nc1cc2c(cc1Sc1ccccc1)OCCO2`: the melting point was in the range of 74 to 76 °C.
For `Cc1cc(C#N)ccc1CO`, the melting point fell in the range of 66 to 68 °C.
Regarding `Nc1cccc(CS(=O)(=O)c2ccccc2)c1`, the melting point lay in the range of 132 to 134 °C.
With `CCc1ncc(C(=O)O)s1`, the melting point was in the range of 151 to 153 °C.
`O=C1CCCSc2ccc(Cl)cc21` came in with a melting point of 49 to 51 °C.
For `Nc1ccccc1C(=O)NCc1ccco1`, the melting point was 76 to 78 °C.
`C=CC(=O)Nc1ccccc1` gave a melting point of 103 to 106 °C.
Under `COc1cc(N)c([N+](=O)[O-])cc1OC` stands 174 to 176 °C; under `CCC(C)C(N)C(N)=O` (centres undefined), 76 to 78 °C; under `O=C(O)c1cc(O)cs1`, 206 to 208 °C.
Molecule `O=c1ccnc(-c2ccccc2)[nH]1` yielded a melting point of 204 to 206 °C.
Molecule `O=C(O)CSCc1ccccn1` returned a melting point of 136 to 138 °C.

Values taken from a melting point compilation (Tetko et al.).
